From article PMC5118688 (Scientific Reports, 2016)
≈ marks a conversion by molar mass, not a printed value. Like-named read-outs stand apart in the source and are kept apart here.

Columns and labels:
[1] = ref Liang et al. 9; cited from earlier work
[2] = tested on: mAb against a generic hapten (3-(4-dimethoxyphosphorothioyloxy phenyl)propanoic acid); conditions: ref Liu et al. 10; cited from earlier work
mAb3C9 [3] = experiment: mimotope-based dcELISA (mAb3C9 and M20-GST-BAD/SA-HRP competitor); assay type: binding, mouse; conditions: for CR (%): M20-GST-BAD, (IC50 of parathion-methyl/IC50 of pesticide) × 100; for LOD (IC10): mAb3C9, M20-GST-BAD; for IC50 ± SD: mAb3C9, competitor M20-GST-BAD
Method: To develop a mimotope-based dcELISA, the biotinylated mimotope fusion protein was firstly assembled with streptavidin-HRP conjugate (SA-HRP) utilized the high affinity of biotin and streptavidin. The assembly process was just mixing a certain amount of biotinylated mimotope fusion protein with SA-HRP and incubating them at 4 °C overnight before use as an HRP-labeled competitor.
An innovative mimotope-based dcELISA was developed and performed as below. […] TMB solution (100 μL/well) was added and incubated for 15 min at 37 °C.
The optimal condition for mimotope-based dcELISA was optimized as chemosynthesized antigen-based dcELISA. The selectivity and sensitivity of the developed mimotope-based dcELISA for the 24 OPs were also determined under the optimum condition.

mAb4D11 = experiment: optimized mAb4D11-based dcELISA; conditions: mAb4D11-based dcELISA
Method: (§1) The dcELISA procedure was performed as below. First, the plate (Costar, Corning Inc., New York, USA) was coated with coating antigen (100 μL/well in 1 × PBS) for 1 h at 37 °C. Then, the wells were washed four times with PBST (1 × PBS with 0.05% (v/v) Tween-20) and blocked with 2% skim milk (200 μL/well) for 1 h at 37 °C. After washing four times, 50 μL analyte in MeOH-water solution and 50 μL mAb-HRP in PBS were added. The plate was incubated for 1 h at 37 °C and then washed four times before adding TMB solution (100 μL/well). After incubation for 15 min at 37 °C, 50 μL/well of H2SO4 (2 mol/L) was added to stop the reaction, and the absorbance was recorded at 450 nm using the Model 680 plate reader (Bio-Rad, USA).
(§2) 18 kinds of O,O-dimethyl OPs and 6 kinds of O,O-diethyl OPs were purchased from National Standards of China and used for the selectivity and sensitivity study using the optimized dcELISA procedure. […] The IC50 value and detection limit of each OP were calculated. The CR value, which was used to evaluate the selectivity of the method, was calculated using the following equation:

mAb3C9 [4] = experiment: optimized chemosynthesized antigen-based dcELISA (mAb3C9 and hapten 6-OVA); conditions: for CR (%): Hapten 6-OVA, (IC50 of parathion-methyl/IC50 of pesticide) × 100; for LOD (IC10): mAb3C9, Hapten 6-OVA; for IC50 ± SD: mAb3C9, coating antigen Hapten 6-OVA
Method: as §1, §2

[5] = ref Hua et al. 11; cited from earlier work

SMILES	IC50 [1] [ng/mL]	IC50 [2] [ng/mL]	CR (%) (mAb3C9 [3])	LOD (IC10) (mAb3C9 [3]) [ng/mL]	IC50 ± SD (mAb3C9 [3]) [ng/mL]	CR (%) (mAb4D11)	IC50 (mAb4D11) [ng/mL]	LOD (mAb4D11) [ng/mL]	CR (%) (mAb3C9 [4])	LOD (IC10) (mAb3C9 [4]) [ng/mL]	IC50 ± SD (mAb3C9 [4]) [ng/mL]	IC50 [5] [ng/mL]
COP(=S)(OC)Oc1ccc([N+](=O)[O-])cc1 [Parathion-methyl]	438.9 (≈ 1.67 µM)	580 (≈ 2.2 µM)	100.0	0.9	5.1 ± 0.2 (≈ 0.0194 µM)	100.0	14.5 (≈ 0.0551 µM)	2.0	100.0	0.9	4.7 ± 0.3 (≈ 0.0179 µM)	3.7 (≈ 0.0141 µM)
COP(=S)(OC)Oc1ccc([N+](=O)[O-])c(C)c1 [Fenitrothion]	324 (≈ 1.17 µM)	3540 (≈ 12.8 µM)	104.1	1.2	4.9 ± 0.2 (≈ 0.0177 µM)	180.2	8.1 (≈ 0.0292 µM)	1.2	107.1	1.1	4.4 ± 0.3 (≈ 0.0159 µM)	8.9 (≈ 0.0321 µM)
